In PMC2650494 (Bioorganic & medicinal chemistry, 2008):
Non-standard residues stand in square brackets, D forms with d. Residues, ends and D or L forms follow the SMILES beside them. *: point of attachment. Phe(4-CH2SO3H) = N[C@@H](Cc1ccc(CS(=O)(=O)O)cc1)C(=O)O; X1 = [N-]=[N+]=NCCOCCOCC*

How the values were obtained:
gp120-CD4 = gp120-CD4 (Human immunodeficiency virus type 1 group M subtype B, UniProt P35961); assay type: binding, HIV-1; conditions: 1H NMR; 40:1 peptide:gp120-CD4

Compound: CC[C@H](C)[C@H](NC(=O)[C@H](CC(=O)O)NC(=O)[C@H](Cc1ccc(CS(=O)(=O)O)cc1)NC(=O)[C@@H](NC(=O)[C@@H]1CCCN1C(=O)[C@H](CO)NC(=O)[C@H](CO)NC(=O)[C@@H](NC(=O)[C@H](CCC(N)=O)NC(=O)[C@H](Cc1ccc(CS(=O)(=O)O)cc1)NC(=O)[C@@H](N)CC(=O)O)C(C)C)[C@@H](C)CC)C(=O)N[C@@H](CC(N)=O)C(=O)N[C@@H](Cc1ccc(CS(=O)(=O)O)cc1)C(=O)N[C@@H](Cc1ccc(O)cc1)C(=O)N[C@H](C(=O)N[C@@H](CO)C(=O)N[C@@H](CCC(=O)O)C(=O)N1CCC[C@H]1C(=O)N[C@@H](COCCOCCOCCN=[N+]=[N-])C(=O)O)[C@@H](C)O [compound 11] (H-D[Phe(4-CH2SO3H)]QVSSPI[Phe(4-CH2SO3H)]DIN[Phe(4-CH2SO3H)]YTSEPS(X1)-OH; N-terminus and C-terminus assumed)
- Increase in line width between free and bound peptides, 10δ (gp120-CD4): 2.4 Hz
- Increase in line width between free and bound peptides, 14δ (gp120-CD4): 2.8 Hz
- Increase in line width between free and bound peptides, 15δ (gp120-CD4): 1.9 Hz
- Increase in line width between free and bound peptides, 15ε (gp120-CD4): 3.2 Hz
- solubility (Water solubility): > 30 mM
